Reference: the NIST ThermoML archive (doi:10.1021/je050513r)
Numbers after ± are expanded uncertainties.

Experiment: refractive index (Na D-line) (dimensionless)
Details: 293.1 K; 101.33 kPa; Liquid; Standard Abbe refractometry

| refractive index | SMILES |
| --- | --- |
| 1.4686 ± 0.0007 | CN1CCCC1=O [N-methylpyrrolidone] |
| 1.4344 ± 0.0007 | CCCCCCCCCCCCCCCC [hexadecane] |

| SMILES | refractive index |
| --- | --- |
| Cc1cc(C)cc(C)c1 [1,3,5-trimethylbenzene] | 1.4992 ± 0.0007 |
